{"source": "ChEMBL document CHEMBL1629662", "about": "“Antimicrobial activity of prulifloxacin tested against a worldwide collection of gastroenteritis-producing pathogens, including those causing traveler's diarrhea” (2009)", "key": {"Vibrio fluvialis": {"test_system": "Vibrio fluvialis", "test": "Antibacterial activity against Vibrio fluvialis by broth microdilution method", "format": "functional"}, "Vibrio alginolyticus": {"test_system": "Vibrio alginolyticus", "test": "Antibacterial activity against Vibrio alginolyticus by broth microdilution method", "format": "functional"}, "Vibrio parahaemolyticus": {"test_system": "Vibrio parahaemolyticus", "test": "Antibacterial activity against Vibrio parahaemolyticus by broth microdilution method", "format": "functional"}, "Salmonella enteritidis": {"test_system": "Salmonella enteritidis", "test": "Antibacterial activity against Salmonella enterica serovar Enteritidis by broth microdilution method", "format": "functional, Salmonella enterica subsp. enterica serovar Enteritidis"}, "Aeromonas hydrophila": {"test_system": "Aeromonas hydrophila", "test": "Antibacterial activity against Aeromonas hydrophila by broth microdilution method", "format": "functional"}, "Shigella boydii": {"test_system": "Shigella boydii", "test": "Antibacterial activity against Shigella boydii by broth microdilution method", "format": "functional"}, "Aeromonas sobria": {"test_system": "Aeromonas sobria", "test": "Antibacterial activity against Aeromonas sobria by broth microdilution method", "format": "functional"}, "Vibrio vulnificus": {"test_system": "Vibrio vulnificus", "test": "Antibacterial activity against Vibrio vulnificus by broth microdilution method", "format": "functional"}, "Shigella sonnei": {"test_system": "Shigella sonnei", "test": "Antibacterial activity against Shigella sonnei by broth microdilution method", "format": "functional"}, "Aeromonas caviae": {"test_system": "Aeromonas caviae", "test": "Antibacterial activity against Aeromonas caviae by broth microdilution method", "format": "functional"}, "Yersinia enterocolitica": {"test_system": "Yersinia enterocolitica", "test": "Antibacterial activity against Yersinia enterocolitica by broth microdilution method", "format": "functional"}, "Shigella flexneri": {"test_system": "Shigella flexneri", "test": "Antibacterial activity against Shigella flexneri by broth microdilution method", "format": "functional"}, "[1]": {"test_system": "Yersinia pseudotuberculosis", "test": "Antibacterial activity against Yersinia pseudotuberculosis by broth microdilution method", "format": "functional"}, "Shigella dysenteriae": {"test_system": "Shigella dysenteriae", "test": "Antibacterial activity against Shigella dysenteriae by broth microdilution method", "format": "functional"}, "Escherichia coli": {"test_system": "Escherichia coli", "test": "Antibacterial activity against Escherichia coli by broth microdilution method", "format": "functional"}, "Campylobacter coli": {"test_system": "Campylobacter coli", "test": "Antibacterial activity against Campylobacter coli by broth microdilution method", "format": "functional"}, "Campylobacter jejuni": {"test_system": "Campylobacter jejuni", "test": "Antibacterial activity against Campylobacter jejuni by broth microdilution method", "format": "functional"}, "Vibrio cholerae": {"test_system": "Vibrio cholerae", "test": "Antibacterial activity against Vibrio cholerae by broth microdilution method", "format": "functional"}, "Vibrio sp.": {"test_system": "Vibrio sp.", "test": "Antibacterial activity against Vibrio sp. by broth microdilution method", "format": "functional"}, "Aeromonas veronii": {"test_system": "Aeromonas veronii", "test": "Antibacterial activity against Aeromonas veronii by broth microdilution method", "format": "functional"}, "Salmonella typhimurium": {"test_system": "Salmonella typhimurium", "test": "Antibacterial activity against Salmonella enterica serovar Typhimurium by broth microdilution method", "format": "functional, Salmonella enterica subsp. enterica serovar Typhimurium"}, "Plesiomonas shigelloides": {"test_system": "Plesiomonas shigelloides", "test": "Antibacterial activity against Plesiomonas shigelloides by broth microdilution method", "format": "functional"}}}
{"smiles": "CO[C@H]1/C=C/O[C@@]2(C)Oc3c(C)c(O)c4c(O)c(c5c(nc6cc(C)ccn65)c4c3C2=O)NC(=O)/C(C)=C\\C=C\\[C@H](C)[C@H](O)[C@@H](C)[C@@H](O)[C@@H](C)[C@H](OC(C)=O)[C@@H]1C", "note": "[RIFAXIMIN]", "values": [{"measurement": "MIC50", "setting": "Vibrio fluvialis", "value": 0.5, "unit": "µg/mL"}, {"measurement": "MIC90", "setting": "Vibrio fluvialis", "value": 1, "unit": "µg/mL"}, {"measurement": "MIC50", "setting": "Vibrio alginolyticus", "value": 0.5, "unit": "µg/mL"}, {"measurement": "MIC90", "setting": "Vibrio alginolyticus", "value": 1, "unit": "µg/mL"}, {"measurement": "MIC50", "setting": "Vibrio parahaemolyticus", "value": 0.5, "unit": "µg/mL"}, {"measurement": "MIC90", "setting": "Vibrio parahaemolyticus", "value": 1, "unit": "µg/mL"}, {"measurement": "MIC50", "setting": "Salmonella enteritidis", "value": 8, "unit": "µg/mL"}, {"measurement": "MIC90", "setting": "Salmonella enteritidis", "value": 16, "unit": "µg/mL"}, {"measurement": "MIC50", "setting": "Aeromonas hydrophila", "value": 4, "unit": "µg/mL"}, {"measurement": "MIC90", "setting": "Aeromonas hydrophila", "value": 8, "unit": "µg/mL"}, {"measurement": "MIC50", "setting": "Shigella boydii", "value": 8, "unit": "µg/mL"}, {"measurement": "MIC90", "setting": "Shigella boydii", "value": 16, "unit": "µg/mL"}, {"measurement": "MIC50", "setting": "Aeromonas sobria", "value": 4, "unit": "µg/mL"}, {"measurement": "MIC90", "setting": "Aeromonas sobria", "value": 8, "unit": "µg/mL"}, {"measurement": "MIC50", "setting": "Vibrio vulnificus", "value": 0.5, "unit": "µg/mL"}, {"measurement": "MIC90", "setting": "Vibrio vulnificus", "value": 1, "unit": "µg/mL"}, {"measurement": "MIC50", "setting": "Shigella sonnei", "value": 8, "unit": "µg/mL"}, {"measurement": "MIC90", "setting": "Shigella sonnei", "value": 16, "unit": "µg/mL"}, {"measurement": "MIC50", "setting": "Aeromonas caviae", "value": 4, "unit": "µg/mL"}, {"measurement": "MIC90", "setting": "Aeromonas caviae", "value": 8, "unit": "µg/mL"}, {"measurement": "MIC50", "setting": "Yersinia enterocolitica", "value": 4, "unit": "µg/mL"}, {"measurement": "MIC90", "setting": "Yersinia enterocolitica", "value": 8, "unit": "µg/mL"}, {"measurement": "MIC50", "setting": "Shigella flexneri", "value": 8, "unit": "µg/mL"}, {"measurement": "MIC90", "setting": "Shigella flexneri", "value": 16, "unit": "µg/mL"}, {"measurement": "MIC50", "setting": "[1]", "value": 4, "unit": "µg/mL"}, {"measurement": "MIC90", "setting": "[1]", "value": 8, "unit": "µg/mL"}, {"measurement": "MIC50", "setting": "Shigella dysenteriae", "value": 8, "unit": "µg/mL"}, {"measurement": "MIC90", "setting": "Shigella dysenteriae", "value": 16, "unit": "µg/mL"}, {"measurement": "MIC50", "setting": "Escherichia coli", "value": 8, "unit": "µg/mL"}, {"measurement": "MIC90", "setting": "Escherichia coli", "value": 16, "unit": "µg/mL"}, {"measurement": "MIC50", "setting": "Campylobacter coli", "value": 32, "unit": "µg/mL"}, {"measurement": "MIC90", "setting": "Campylobacter coli", "value": 32, "unit": "µg/mL"}, {"measurement": "MIC50", "setting": "Campylobacter jejuni", "value": 32, "unit": "µg/mL"}, {"measurement": "MIC90", "setting": "Campylobacter jejuni", "value": 32, "unit": "µg/mL"}, {"measurement": "MIC50", "setting": "Vibrio cholerae", "value": 0.5, "unit": "µg/mL"}, {"measurement": "MIC90", "setting": "Vibrio cholerae", "value": 1, "unit": "µg/mL"}, {"measurement": "MIC50", "setting": "Vibrio sp.", "value": 0.5, "unit": "µg/mL"}, {"measurement": "MIC90", "setting": "Vibrio sp.", "value": 1, "unit": "µg/mL"}, {"measurement": "MIC50", "setting": "Aeromonas veronii", "value": 4, "unit": "µg/mL"}, {"measurement": "MIC90", "setting": "Aeromonas veronii", "value": 8, "unit": "µg/mL"}, {"measurement": "MIC50", "setting": "Salmonella typhimurium", "value": 8, "unit": "µg/mL"}, {"measurement": "MIC90", "setting": "Salmonella typhimurium", "value": 16, "unit": "µg/mL"}, {"measurement": "MIC", "setting": "Plesiomonas shigelloides", "value": 8, "unit": "µg/mL"}, {"measurement": "MIC50", "setting": "Plesiomonas shigelloides", "value": 8, "unit": "µg/mL"}]}
